Article PMC4286194 (Biochemical Journal, 2015)

Assays:
Experiment in all cases: Kinase profiling
Format in all cases: biochemical
[1] = biological target: CDK9-Cyclin T1 (Homo sapiens, UniProt P50750)
[2] = biological target: CSK (Homo sapiens, UniProt P41240)
[3] = biological target: T1, DDR2 (Homo sapiens, UniProt Q16832)
T1 sequence (Q16832 22-855): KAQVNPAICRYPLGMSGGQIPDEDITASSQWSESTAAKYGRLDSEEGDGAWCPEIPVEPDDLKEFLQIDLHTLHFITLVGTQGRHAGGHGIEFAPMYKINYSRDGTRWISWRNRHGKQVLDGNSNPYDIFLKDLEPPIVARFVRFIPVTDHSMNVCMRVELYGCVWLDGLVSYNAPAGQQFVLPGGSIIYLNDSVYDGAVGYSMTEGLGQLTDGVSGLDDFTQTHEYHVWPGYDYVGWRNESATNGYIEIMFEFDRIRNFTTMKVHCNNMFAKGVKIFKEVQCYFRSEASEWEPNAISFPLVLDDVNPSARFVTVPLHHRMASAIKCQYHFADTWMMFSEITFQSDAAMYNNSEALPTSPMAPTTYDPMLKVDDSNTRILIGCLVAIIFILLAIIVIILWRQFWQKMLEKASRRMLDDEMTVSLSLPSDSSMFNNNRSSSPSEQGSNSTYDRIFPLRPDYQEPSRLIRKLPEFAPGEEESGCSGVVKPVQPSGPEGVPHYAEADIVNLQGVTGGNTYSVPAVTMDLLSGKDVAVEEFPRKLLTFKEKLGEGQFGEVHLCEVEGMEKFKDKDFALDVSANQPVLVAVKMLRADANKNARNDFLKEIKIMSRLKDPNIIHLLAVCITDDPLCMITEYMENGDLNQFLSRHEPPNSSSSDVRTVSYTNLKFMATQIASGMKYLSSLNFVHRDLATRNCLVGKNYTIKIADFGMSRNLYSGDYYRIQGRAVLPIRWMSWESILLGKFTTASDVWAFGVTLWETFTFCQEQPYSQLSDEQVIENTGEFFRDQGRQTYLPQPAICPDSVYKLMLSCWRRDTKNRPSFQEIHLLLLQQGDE

[4] = biological target: HIPK1 (Homo sapiens, UniProt Q86Z02)
[5] = biological target: T2, IKK beta (Homo sapiens, UniProt O14920)
T2 sequence (O14920 1-756): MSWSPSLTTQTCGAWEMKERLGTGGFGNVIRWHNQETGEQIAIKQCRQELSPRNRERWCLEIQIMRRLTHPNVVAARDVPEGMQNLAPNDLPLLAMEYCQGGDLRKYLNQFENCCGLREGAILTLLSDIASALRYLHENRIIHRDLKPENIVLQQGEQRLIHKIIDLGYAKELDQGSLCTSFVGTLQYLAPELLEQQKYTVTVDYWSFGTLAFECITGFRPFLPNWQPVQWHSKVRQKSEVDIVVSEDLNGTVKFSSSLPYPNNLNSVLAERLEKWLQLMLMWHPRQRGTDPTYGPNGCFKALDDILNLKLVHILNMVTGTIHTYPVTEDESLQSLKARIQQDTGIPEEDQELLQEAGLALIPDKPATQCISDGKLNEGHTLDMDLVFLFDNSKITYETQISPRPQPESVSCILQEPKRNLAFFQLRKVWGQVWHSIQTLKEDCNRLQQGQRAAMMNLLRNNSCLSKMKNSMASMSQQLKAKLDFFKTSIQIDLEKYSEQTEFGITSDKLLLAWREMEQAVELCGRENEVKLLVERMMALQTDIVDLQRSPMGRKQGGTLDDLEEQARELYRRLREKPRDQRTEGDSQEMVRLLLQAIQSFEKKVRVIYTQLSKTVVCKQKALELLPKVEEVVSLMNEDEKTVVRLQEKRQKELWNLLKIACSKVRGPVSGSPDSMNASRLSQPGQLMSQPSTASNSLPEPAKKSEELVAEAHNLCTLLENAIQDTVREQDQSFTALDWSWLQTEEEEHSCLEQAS

[6] = biological target: MAP4K5 (Homo sapiens, UniProt Q9Y4K4)
[7] = biological target: MARK1 (Homo sapiens, UniProt Q9P0L2)
[8] = biological target: MEKK1 (Homo sapiens, UniProt Q13233)
[9] = biological target: T3, PKC zeta (Homo sapiens, UniProt Q05513)
T3 sequence (Q05513 1-592): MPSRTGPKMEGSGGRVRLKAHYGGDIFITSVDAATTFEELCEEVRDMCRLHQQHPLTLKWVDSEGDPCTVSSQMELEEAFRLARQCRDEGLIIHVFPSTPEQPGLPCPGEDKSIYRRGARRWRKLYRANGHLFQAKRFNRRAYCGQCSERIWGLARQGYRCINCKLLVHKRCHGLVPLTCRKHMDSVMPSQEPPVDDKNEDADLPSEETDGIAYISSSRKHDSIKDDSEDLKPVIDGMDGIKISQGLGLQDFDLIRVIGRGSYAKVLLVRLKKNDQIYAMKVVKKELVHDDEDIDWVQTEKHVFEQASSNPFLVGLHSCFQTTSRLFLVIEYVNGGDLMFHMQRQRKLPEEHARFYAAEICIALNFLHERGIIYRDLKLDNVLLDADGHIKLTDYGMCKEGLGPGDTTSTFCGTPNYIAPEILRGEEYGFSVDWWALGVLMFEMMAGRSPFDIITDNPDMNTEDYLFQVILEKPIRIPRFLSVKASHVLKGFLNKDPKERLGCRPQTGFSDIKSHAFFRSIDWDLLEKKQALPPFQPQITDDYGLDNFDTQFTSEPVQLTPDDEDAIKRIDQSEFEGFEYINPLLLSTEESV

Sequence of MARK1 (Q9P0L2 whole entry): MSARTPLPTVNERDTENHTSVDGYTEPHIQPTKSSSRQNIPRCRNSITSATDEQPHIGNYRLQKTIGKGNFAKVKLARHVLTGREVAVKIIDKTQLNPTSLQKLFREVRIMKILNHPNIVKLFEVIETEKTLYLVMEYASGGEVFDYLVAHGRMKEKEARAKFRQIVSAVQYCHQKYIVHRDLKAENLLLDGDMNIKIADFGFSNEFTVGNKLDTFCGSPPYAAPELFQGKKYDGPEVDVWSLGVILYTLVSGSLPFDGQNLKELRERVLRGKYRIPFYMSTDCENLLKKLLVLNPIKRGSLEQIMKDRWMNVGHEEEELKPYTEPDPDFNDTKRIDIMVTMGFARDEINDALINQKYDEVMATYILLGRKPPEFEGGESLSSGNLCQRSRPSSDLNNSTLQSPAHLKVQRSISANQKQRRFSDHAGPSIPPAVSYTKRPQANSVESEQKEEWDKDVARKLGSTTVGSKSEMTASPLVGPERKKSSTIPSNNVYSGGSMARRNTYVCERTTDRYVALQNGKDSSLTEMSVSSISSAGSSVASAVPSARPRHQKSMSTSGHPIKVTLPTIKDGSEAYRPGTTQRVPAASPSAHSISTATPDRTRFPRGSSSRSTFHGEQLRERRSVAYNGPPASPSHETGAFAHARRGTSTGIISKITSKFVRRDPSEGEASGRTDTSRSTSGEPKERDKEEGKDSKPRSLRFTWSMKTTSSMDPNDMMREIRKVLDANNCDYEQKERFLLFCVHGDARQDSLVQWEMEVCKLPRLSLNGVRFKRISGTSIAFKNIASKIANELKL
Sequence of MEKK1 (Q13233 whole entry): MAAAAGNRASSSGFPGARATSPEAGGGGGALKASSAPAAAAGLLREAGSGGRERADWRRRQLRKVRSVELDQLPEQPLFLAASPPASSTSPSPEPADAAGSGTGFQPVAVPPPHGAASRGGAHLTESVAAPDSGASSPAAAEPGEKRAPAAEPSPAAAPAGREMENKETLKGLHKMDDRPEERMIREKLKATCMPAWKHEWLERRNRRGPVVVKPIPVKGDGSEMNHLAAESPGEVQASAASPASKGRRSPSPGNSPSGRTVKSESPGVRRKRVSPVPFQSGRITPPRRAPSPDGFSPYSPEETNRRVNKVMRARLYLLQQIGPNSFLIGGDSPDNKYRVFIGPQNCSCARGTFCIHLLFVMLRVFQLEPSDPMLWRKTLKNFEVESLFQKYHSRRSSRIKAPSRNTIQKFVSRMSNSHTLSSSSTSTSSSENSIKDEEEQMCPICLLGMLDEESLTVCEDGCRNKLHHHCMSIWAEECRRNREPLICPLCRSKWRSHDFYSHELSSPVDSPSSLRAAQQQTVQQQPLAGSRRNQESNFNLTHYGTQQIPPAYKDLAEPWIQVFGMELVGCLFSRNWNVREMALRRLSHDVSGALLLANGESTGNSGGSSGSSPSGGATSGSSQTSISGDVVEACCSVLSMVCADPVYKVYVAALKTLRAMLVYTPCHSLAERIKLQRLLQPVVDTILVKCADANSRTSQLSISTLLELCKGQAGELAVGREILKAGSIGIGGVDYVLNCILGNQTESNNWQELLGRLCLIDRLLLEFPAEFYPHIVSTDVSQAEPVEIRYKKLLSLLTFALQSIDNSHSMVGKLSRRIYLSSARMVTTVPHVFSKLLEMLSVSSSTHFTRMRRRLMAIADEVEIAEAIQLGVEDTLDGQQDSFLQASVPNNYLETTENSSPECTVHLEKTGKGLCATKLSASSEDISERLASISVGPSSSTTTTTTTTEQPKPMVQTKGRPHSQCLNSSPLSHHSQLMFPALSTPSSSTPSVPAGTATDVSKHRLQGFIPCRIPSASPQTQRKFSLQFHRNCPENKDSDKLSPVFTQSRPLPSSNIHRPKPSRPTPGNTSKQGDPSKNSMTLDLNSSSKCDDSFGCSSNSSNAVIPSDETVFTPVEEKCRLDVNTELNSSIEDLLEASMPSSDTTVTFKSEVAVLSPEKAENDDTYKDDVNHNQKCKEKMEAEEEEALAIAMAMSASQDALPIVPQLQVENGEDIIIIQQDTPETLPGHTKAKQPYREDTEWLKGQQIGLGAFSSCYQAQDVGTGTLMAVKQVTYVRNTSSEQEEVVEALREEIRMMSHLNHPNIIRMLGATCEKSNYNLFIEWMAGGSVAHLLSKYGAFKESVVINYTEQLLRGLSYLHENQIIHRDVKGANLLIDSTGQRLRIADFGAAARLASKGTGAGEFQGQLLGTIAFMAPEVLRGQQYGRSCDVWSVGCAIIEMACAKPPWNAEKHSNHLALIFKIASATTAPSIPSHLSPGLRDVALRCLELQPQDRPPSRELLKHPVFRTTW
Sequence of CDK9-Cyclin T1 (P50750 whole entry): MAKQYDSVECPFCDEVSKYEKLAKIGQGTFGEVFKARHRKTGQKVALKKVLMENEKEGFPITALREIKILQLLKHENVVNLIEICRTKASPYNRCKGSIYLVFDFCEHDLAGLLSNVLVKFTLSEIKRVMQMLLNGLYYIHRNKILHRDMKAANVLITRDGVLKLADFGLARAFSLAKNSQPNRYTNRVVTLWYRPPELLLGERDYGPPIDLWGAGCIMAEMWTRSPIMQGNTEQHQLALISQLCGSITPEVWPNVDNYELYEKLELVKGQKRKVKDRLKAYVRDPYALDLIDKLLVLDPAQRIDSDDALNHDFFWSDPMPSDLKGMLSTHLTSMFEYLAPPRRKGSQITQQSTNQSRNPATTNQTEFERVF
Sequence of CDK9-Cyclin T1 (O60563 whole entry partner): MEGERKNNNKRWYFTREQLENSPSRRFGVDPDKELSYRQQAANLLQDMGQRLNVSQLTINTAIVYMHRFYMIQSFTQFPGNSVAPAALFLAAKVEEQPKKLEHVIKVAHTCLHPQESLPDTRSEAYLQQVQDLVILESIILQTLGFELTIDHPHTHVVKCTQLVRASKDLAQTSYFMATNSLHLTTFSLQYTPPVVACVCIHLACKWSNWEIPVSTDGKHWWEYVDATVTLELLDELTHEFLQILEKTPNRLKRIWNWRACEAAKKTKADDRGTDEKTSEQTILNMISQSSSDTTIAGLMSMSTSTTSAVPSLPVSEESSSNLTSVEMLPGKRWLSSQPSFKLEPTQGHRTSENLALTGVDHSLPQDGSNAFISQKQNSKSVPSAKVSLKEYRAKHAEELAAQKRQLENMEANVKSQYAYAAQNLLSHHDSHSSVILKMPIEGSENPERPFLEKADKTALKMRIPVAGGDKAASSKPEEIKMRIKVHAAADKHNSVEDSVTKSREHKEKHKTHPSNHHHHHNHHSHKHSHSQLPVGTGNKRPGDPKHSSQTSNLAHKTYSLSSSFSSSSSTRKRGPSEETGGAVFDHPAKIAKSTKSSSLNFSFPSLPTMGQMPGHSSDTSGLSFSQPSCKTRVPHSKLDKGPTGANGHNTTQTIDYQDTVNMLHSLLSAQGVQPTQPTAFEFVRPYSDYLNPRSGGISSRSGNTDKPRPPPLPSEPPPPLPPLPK
Sequence of CSK (P41240 whole entry): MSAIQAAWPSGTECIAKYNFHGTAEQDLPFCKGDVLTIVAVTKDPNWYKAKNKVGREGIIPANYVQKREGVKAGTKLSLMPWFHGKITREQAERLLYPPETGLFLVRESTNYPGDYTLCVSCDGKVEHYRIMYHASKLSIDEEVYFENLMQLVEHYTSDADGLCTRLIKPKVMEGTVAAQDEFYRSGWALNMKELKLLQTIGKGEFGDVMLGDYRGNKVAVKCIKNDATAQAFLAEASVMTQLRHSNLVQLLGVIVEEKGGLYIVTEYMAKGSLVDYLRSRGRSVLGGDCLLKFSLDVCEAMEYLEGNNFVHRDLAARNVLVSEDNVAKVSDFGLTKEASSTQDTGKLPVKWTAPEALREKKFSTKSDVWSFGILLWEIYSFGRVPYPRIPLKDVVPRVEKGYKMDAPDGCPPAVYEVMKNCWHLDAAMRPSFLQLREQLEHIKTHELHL
Sequence of HIPK1 (Q86Z02 whole entry): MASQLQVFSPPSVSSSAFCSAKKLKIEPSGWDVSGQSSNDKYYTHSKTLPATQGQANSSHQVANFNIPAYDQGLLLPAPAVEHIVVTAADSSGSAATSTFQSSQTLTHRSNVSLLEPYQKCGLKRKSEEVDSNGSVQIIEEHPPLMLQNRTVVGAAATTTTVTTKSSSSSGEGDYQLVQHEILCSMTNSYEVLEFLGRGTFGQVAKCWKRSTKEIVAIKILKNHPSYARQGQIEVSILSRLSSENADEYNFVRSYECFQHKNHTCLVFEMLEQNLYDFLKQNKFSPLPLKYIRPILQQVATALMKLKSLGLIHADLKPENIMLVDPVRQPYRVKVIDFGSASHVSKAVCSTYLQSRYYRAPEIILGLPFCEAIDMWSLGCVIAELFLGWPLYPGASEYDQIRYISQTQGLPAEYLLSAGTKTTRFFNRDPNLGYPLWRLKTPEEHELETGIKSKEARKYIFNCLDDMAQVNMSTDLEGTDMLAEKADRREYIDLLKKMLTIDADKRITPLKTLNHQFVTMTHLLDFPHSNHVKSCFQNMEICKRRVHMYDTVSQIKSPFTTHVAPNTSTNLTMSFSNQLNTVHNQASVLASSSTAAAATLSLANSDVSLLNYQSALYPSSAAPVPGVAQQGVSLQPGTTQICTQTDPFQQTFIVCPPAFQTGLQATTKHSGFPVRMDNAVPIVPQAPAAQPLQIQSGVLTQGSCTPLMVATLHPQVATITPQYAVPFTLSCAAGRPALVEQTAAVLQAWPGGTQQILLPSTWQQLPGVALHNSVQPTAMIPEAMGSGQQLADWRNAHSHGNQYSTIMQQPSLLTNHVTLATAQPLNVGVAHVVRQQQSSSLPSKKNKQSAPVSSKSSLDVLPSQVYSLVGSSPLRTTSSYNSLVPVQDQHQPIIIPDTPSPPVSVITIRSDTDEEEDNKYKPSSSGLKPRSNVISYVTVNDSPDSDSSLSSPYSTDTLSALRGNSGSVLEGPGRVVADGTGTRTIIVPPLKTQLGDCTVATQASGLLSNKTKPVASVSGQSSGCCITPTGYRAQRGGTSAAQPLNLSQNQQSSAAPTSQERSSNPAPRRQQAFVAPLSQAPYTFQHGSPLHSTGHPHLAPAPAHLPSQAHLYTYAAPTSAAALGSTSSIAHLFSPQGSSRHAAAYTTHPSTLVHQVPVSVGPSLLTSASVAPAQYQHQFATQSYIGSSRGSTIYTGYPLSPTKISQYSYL

SMILES: COc1cc(Nc2c(C#N)cnc3cc(OCCCN4CCN(C)CC4)c(OC)cc23)c(Cl)cc1Cl [Bosutinib, bosutinib]
- remaining activity at 0.1 µM [1]: 101 ± 8%
- remaining activity at 1 µM [1]: 125 ± 16%
- remaining activity at 0.1 µM [2]: 65 ± 7%
- remaining activity at 1 µM [2]: 4%
- remaining activity at 0.1 µM [3]: 22 ± 1%
- remaining activity at 1 µM [3]: 2%
- remaining activity at 0.1 µM [4]: 95%
- remaining activity at 1 µM [4]: 57%
- remaining activity at 0.1 µM [5]: 92 ± 15%
- remaining activity at 0.1 µM [6]: 0%
- remaining activity at 1 µM ([6]; 1 µM): 1%
- remaining activity at 0.1 µM [7]: 84 ± 5%
- remaining activity at 1 µM [7]: 76 ± 4%
- remaining activity at 0.1 µM [8]: 95 ± 5%
- remaining activity at 1 µM [8]: 85 ± 6%
- remaining activity at 0.1 µM [9]: 91 ± 2%
- remaining activity at 1 µM [9]: 102 ± 4%

SMILES: Cc1nc(Nc2ncc(C(=O)Nc3c(C)cccc3Cl)s2)cc(N2CCN(CCO)CC2)n1 [Dasatinib]
- remaining activity at 0.1 µM [1]: 122 ± 8%
- remaining activity at 1 µM [1]: 138 ± 12%
- remaining activity at 0.1 µM [2]: 97 ± 19%
- remaining activity at 1 µM [2]: 8 ± 3%
- remaining activity at 0.1 µM [3]: 1 ± 1%
- remaining activity at 1 µM [3]: 0%
- remaining activity at 0.1 µM [4]: 105 ± 4%
- remaining activity at 1 µM [4]: 122 ± 6%
- remaining activity at 0.1 µM [5]: 97 ± 21%
- remaining activity at 1 µM ([5]; 1 µM): 99 ± 9%
- remaining activity at 0.1 µM [6]: 22 ± 1%
- remaining activity at 0.1 µM [7]: 115 ± 3%
- remaining activity at 1 µM [7]: 127 ± 3%
- remaining activity at 0.1 µM [8]: 98 ± 4%
- remaining activity at 1 µM [8]: 102 ± 1%
- remaining activity at 0.1 µM [9]: 101 ± 3%
- remaining activity at 1 µM [9]: 109 ± 7%
